Source: publication PMC12257413, “Discovery of a Novel sp^3‑Rich M1 Positive Allosteric Modulators (PAMs) Chemotype via Scaffold Hopping” (ACS Medicinal Chemistry Letters, 2025)

Columns and labels:
[1] = Intrinsic clearance in rat hepatic microsomes, predicted hepatic clearance; assay type: in vitro ADME; settings: predicted hepatic clearance from rat hepatic microsomes
Protocol: A similar approach was used to determine the degree of brain homogenate binding, which employed the same methodology and procedure with the following modifications: 1) a final compound concentration of 1 μM was used, 2) naïve rat brains were homogenized in DPBS (1:3 composition of brain: DPBS, w/w) using a Mini-Bead Beater™ machine in order to obtain brain homogenate, which was then treated in the same manner as the plasma samples in the previously described plasma protein binding assay. […]
same manner as the plasma samples in the previously described plasma protein binding assay. Fraction unbound for both plasma and brain samples was determined using Equation 4.
Equation 4 Determination of fraction unbound in plasma.
The diluted fraction unbound (fu2) in brain was calculated in the same manner by using brain homogenate rather than plasma. Undiluted fraction unbound for the brain was calculated using Equation 5 […]
Equation 5 Determination of fraction unbound in brain. […]
Human or rat hepatic microsomes (0.5 mg/mL) and 1 µM test compound were incubated in 100 mM potassium phosphate pH 7.4 buffer with 3 mM MgCl 2 at 37 °C with constant shaking. […] The in vitro half-life (1/2, min, Eq. 1), intrinsic clearance (CL int, mL/min/kg, Eq. 2), and subsequent predicted hepatic clearance (CLhep, mL/min/kg, Eq. 3) was determined employing the following equations: […]

[2] = Plasma protein binding by equilibrium dialysis, rat plasma; assay type: in vitro ADME; settings: fraction unbound in rat plasma
Protocol: for 2 seconds (excitation, 480 nm; emission, 530 nm), first add occurred by adding 20 µL of test compound to the cells, and the response was measured for 140 seconds. This is followed by second add; 10 µL (5X) of an EC20 concentration of ACh agonist was added to the cells, and the response of the cells was measured for 125 seconds. Immediately, the third add occurred by adding 12 ul assay buffer or 5X of an EC max concentration of ACh and the response of the cells was measured for 90 seconds. Assay buffer was added to the wells that incubated with compounds followed by EC20 concentration of ACh. […] Calcium fluorescence was recorded as fold over basal fluorescence and raw data were normalized to the maximal response to ACh agonist. Potency (EC50) and maximum response (% ACh Max) for compounds was determined using a four -parameter logist ical equation using GraphPad Prism (La Jolla, CA) or the Dotmatics software platform ( Woburn, MA) : […]
The protein binding of each compound was determined in plasma via equilibrium dialysis employing rapid equilibrium dialysis (RED) plates (ThermoFisher Scientific, Rochester, NY). […]
same manner as the plasma samples in the previously described plasma protein binding assay. Fraction unbound for both plasma and brain samples was determined using Equation 4. […]

[3] = Rat in vivo PK (PK/PBL cassette); settings: for AUC / MRT / half-life / Vd: plasma; for clearance: plasma clearance, read-out: CLp; for Vd: read-out: Vss
Text: 4 Detailed In Vitro and In Vivo Profiles for Selected M1 PAMs ^a | column: Property; 17k; 17g

Row | Rat CLHEP [1] [L/h/kg] | Rat fuplasma [2] | AUC [3] [µg·h/mL] | MRT [3] [min] | half-life [3] [min] | clearance [3] [L/h/kg] | Vd [3] [L/kg] | Structure (SMILES)
1 | 2.97 | 0.03 | 0.0744 | 39 | 37.8 | 3.36 | 2.2 | Cn1cc(-c2ccc(Cc3cc(C(=O)N[C@H]4CCCC[C@@H]4O)nn3C3CCCC3)cc2)cn1 [17k]
2 | 1.97 | 0.08 | 0.16 | 76.8 | 72.6 | 1.25 | 1.59 | Cn1cc(-c2ccc(Cc3cc(C(=O)N[C@H]4CCOC[C@@H]4O)nn3C3CCCC3)cc2)cn1 [17g]
